# Results published in PubChem BioAssay AID236 (DTP/NCI, 2004).
# Where “and” joins values, the source holds several entries; their conditions need not be identical. Equal entries are not always repeated. Toxic doses and inconclusive results are not listed.
# System: AK4 lymphoid leukemia ip, C3AKF1 mice, survival
# Experiment: NCI In Vivo Anticancer Drug Screen. Data for tumor model AK4 Lymphoid Leukemia (intraperitoneal) in C3AKF1 (CHKRF1) mice
# Details: endpoint: median survival time, vehicle: saline, higher = longer survival
# Description: The antitumor activity of compounds was measured in mice bearing transplantable tumors. Survival or tumor size were measured and the results are expressed as the measurement made in the treated group (T) divided by the measurement made in the vehicle treated control group (C). The tumor model used in this assay is AK4 Lymphoid Leukemia (intraperitoneal) in C3AKF1 (CHKRF1) mice
structure (smiles),measurement,setting,value
O=c1cn[nH]c(=O)[nH]1,T/C,"dose: 32.0 mg/kg/injection, schedule: Q01DX006 (iv)",88 % of control
same,T/C,"dose: 32.0 mg/kg/injection, schedule: Q01DX010 (ip)",88 % of control
same,T/C,"dose: 32.0 mg/kg/injection, schedule: Q01DX010 (sc)",88 % of control
same,T/C,"dose: 32.0 mg/kg/injection, schedule: Q02DX005 (im)",94 % of control
same,T/C,"dose: 64.0 mg/kg/injection, schedule: Q01DX006 (iv)",100 % of control
same,T/C,"dose: 64.0 mg/kg/injection, schedule: Q01DX010 (ip)",88 % of control
same,T/C,"dose: 64.0 mg/kg/injection, schedule: Q01DX010 (sc)",88 % of control
same,T/C,"dose: 64.0 mg/kg/injection, schedule: Q02DX005 (im)",105 % of control
same,T/C,"dose: 100.0 mg/kg/injection, schedule: Q03DX Z (ip)",88 % of control
same,T/C,"dose: 125.0 mg/kg/injection, schedule: Q01DX001 (ip)",88 % of control and 94 % of control
same,T/C,"dose: 125.0 mg/kg/injection, schedule: Q01DX010 (oral)",100 % of control
same,T/C,"dose: 125.0 mg/kg/injection, schedule: Q07DX Z (ip)",111 % of control
same,T/C,"dose: 128.0 mg/kg/injection, schedule: Q01DX006 (iv)",88 % of control
same,T/C,"dose: 128.0 mg/kg/injection, schedule: Q01DX010 (ip)",88 % of control
same,T/C,"dose: 128.0 mg/kg/injection, schedule: Q01DX010 (sc)",88 % of control
same,T/C,"dose: 128.0 mg/kg/injection, schedule: Q02DX005 (im)",122 % of control
same,T/C,"dose: 200.0 mg/kg/injection, schedule: Q03DX Z (ip)",100 % of control
same,T/C,"dose: 250.0 mg/kg/injection, schedule: Q01DX001 (ip)",94 % of control and 100 % of control
same,T/C,"dose: 250.0 mg/kg/injection, schedule: Q01DX010 (oral)",94 % of control
same,T/C,"dose: 250.0 mg/kg/injection, schedule: Q07DX Z (ip)",88 % of control
same,T/C,"dose: 256.0 mg/kg/injection, schedule: Q01DX006 (iv)",105 % of control
same,T/C,"dose: 256.0 mg/kg/injection, schedule: Q01DX010 (ip)",100 % of control
same,T/C,"dose: 256.0 mg/kg/injection, schedule: Q01DX010 (sc)",105 % of control
same,T/C,"dose: 256.0 mg/kg/injection, schedule: Q02DX005 (im)",88 % of control
same,T/C,"dose: 400.0 mg/kg/injection, schedule: Q03DX Z (ip)",94 % of control
same,T/C,"dose: 500.0 mg/kg/injection, schedule: Q01DX001 (ip)",94 % of control and 105 % of control
same,T/C,"dose: 500.0 mg/kg/injection, schedule: Q01DX010 (oral)",111 % of control
same,T/C,"dose: 500.0 mg/kg/injection, schedule: Q07DX Z (ip)",88 % of control
same,T/C,"dose: 800.0 mg/kg/injection, schedule: Q03DX Z (ip)",94 % of control
same,T/C,"dose: 1000.0 mg/kg/injection, schedule: Q01DX001 (ip)",100 % of control and 105 % of control
same,T/C,"dose: 1000.0 mg/kg/injection, schedule: Q01DX010 (oral)",94 % of control
same,T/C,"dose: 1000.0 mg/kg/injection, schedule: Q07DX Z (ip)",100 % of control
CS(=O)(=O)OCCN(CCOS(C)(=O)=O)c1ccc(N=O)cc1,T/C,"dose: 0.5 mg/kg/injection, schedule: Q01DX010 (ip)",111 % of control
same,T/C,"dose: 1.0 mg/kg/injection, schedule: Q01DX010 (ip)",111 % of control
same,T/C,"dose: 2.0 mg/kg/injection, schedule: Q01DX010 (ip)",94 % of control
same,T/C,"dose: 4.0 mg/kg/injection, schedule: Q01DX010 (ip)",88 % of control
same,T/C,"dose: 62.5 micrograms/kg/injection, schedule: Q01DX010 (ip)",110 % of control
same,T/C,"dose: 125.0 micrograms/kg/injection, schedule: Q01DX010 (ip)",115 % of control
same,T/C,"dose: 250.0 micrograms/kg/injection, schedule: Q01DX010 (ip)",115 % of control
same,T/C,"dose: 500.0 micrograms/kg/injection, schedule: Q01DX010 (ip)",115 % of control
O=c1[nH]cc(F)c(=O)[nH]1,T/C,"dose: 20.0 mg/kg/injection, schedule: Q01DX010 (ip)",162 % of control
same,T/C,"dose: 40.0 mg/kg/injection, schedule: Q01DX010 (ip)",112 % of control
same,T/C,"dose: 80.0 mg/kg/injection, schedule: Q01DX010 (ip)",93 % of control
